# Experimental data from patent US10874636B2, “Application of substituted cinnamamide derivatives in preparation of anti-anxiety medication” (TASLY PHARMACEUTICAL GROUP CO., LTD., priority 2016, dated 2020).
# Tests used:
# [1] = test system: rats; assay: Drinking conflict experiment for rats (Vogel test); assay type: in vivo, SD male rats; conditions: for Effect on water licks of the rats during the punished session compared with the solvent control groups: 5 mg/kg intragastric for 10 days, in words; for Water licks of rats during punished session: 5 mg/kg intragastric once a day for 10 days, test half an hour after final administration, 3 minutes, 0.3 mA, x±S
# Protocol: 230 SD male rats with the weight of 180-220 g were taken and fed adaptively for 1 week. Then, these rats were divided, at random, into 19 groups based on their weights, 12-13 rats in each group. Intragastric administration was conducted one a day according to the drugs and dosages listed in Table 2, which lasted for 10 consecutive days. Water deprivation 48 hours before the final administration, and non-punitive drinking training was conducted on the 9th day; on the 10th day, half an hour after the final intragastric administration of all the groups, the punitive experimental test was conducted.
# On the first stage (non-punitive drinking training): after water deprivation for 24 hours, the rats were placed in operation boxes individually to explore thoroughly, until they found bottle mouths and began to lick water, water licks of the rats within 3 minutes under the conditions of no electric shock (the condition was set as follows: the strength of electric shock was 0 mA) were automatically recorded by counters, and rats whose water licks were less than 300 were eliminated. On the second stage (punitive experiment): the above rats which were not eliminated were placed in the operation boxes after continuing the water deprivation for 24 hours (48 hours in total). The rats could find the bottle mouths rapidly and begin to lick water, the instruments began to time automatically and imparted one electric shock (the ratio of licks to the number of electric shocks was 20:1) while the water licks reached to 20, wherein the strength of electric shocks was 0.3 mA, lasting for 2 seconds, but these rats may control the length of the time for which they were electrically shocked by keeping away from the bottle mouths. Water licks of the rats during the punished session (3 minutes) were recorded.
# Observational indexes of the Vogel drinking conflict model: water licks of the rats during the punished session.
# [2] = test system: mice; assay: Elevated plus-maze test for mice; assay type: in vivo, ICR male mice; conditions: 10 mg/kg intragastric for 1 week; in words
# Protocol: 247 ICR male mice aged 6-8 weeks with the weight of 18-22 g were taken and fed adaptively for 1 week. Then, these mice were evenly divided, at random, into 19 groups based on their weights. Intragastric administration was conducted once a day according to the drugs and dosages listed in Table 1, which lasted for 7 consecutive days. 20 minutes after administration on the 7th day, the elevated plus-maze test was conducted.
# The elevated plus-maze (EPM) for mice were composed of two opposite open arms (50 cm×10 cm) and two opposite enclosed arms (50 cm×10 cm×40 cm), wherein upper portions of the enclosed arms were not capped, an open portion of 10 cm×10 cm was located in the middle of the maze, and the maze was 50 cm away from the ground. The test was conducted in a quite environment at a time period ranging from 13:00 to 18:00.
# The open-arms entries (OE) and enclosed-arms entries, as well as the residence time in two arms, of the mice, within 5 minutes, were recorded respectively, and the percentage of the open-arms entries (OE %) and that of the open-arms time (OT %) for each group of mice with respect to the total entries into the two arms and the total residence time in the two arms therein were calculated respectively.
# Analysis was conducted using SPSS 11.5 software, and data were represented by x±S, the significance of differences between groups was compared using the analysis of variance, differences were significant while P was less than 0.05.
Compound,Effect on water licks of the rats during the punished session compared with the solvent control groups [1],Water licks of rats during punished session [1],Effect on open-arms entries of the mice compared with the solvent control groups [2],Effect on open-arms time of the mice compared with the solvent control groups [2]
"CC(C)CNC(=O)/C=C/c1cc(I)c2c(c1)OCO2 [II-3, 5′-iodine-3′,4′-methylenedioxy cinnamic acid isobutylamide]",increase water licks of the rats during the punished session,483.75 ± 59.05,increase the open-arms entries of the mice,prolong their open-arms time
"CC(C)CNC(=O)/C=C/c1cc(Cl)c2c(c1)OCO2 [II-4, 5′-chlorine-3′,4′-methylenedioxy cinnamic acid isobutylamide]",increase water licks of the rats during the punished session,477.22 ± 66.66,increase the open-arms entries of the mice,prolong their open-arms time
"CC(C)CNC(=O)/C=C/c1cc2c(c(C(F)(F)F)c1)OCO2 [II-5, 5′-trifluoromethyl-3′,4′-methylenedioxy cinnamic acid isobutylamide]",increase water licks of the rats during the punished session,469.11 ± 50.51,increase the open-arms entries of the mice,prolong their open-arms time
"O=C(/C=C/c1cc2c(c(C(F)(F)F)c1)OCO2)N1CCCCC1 [II-10, 5′-trifluoromethyl-3′,4′-methylenedioxy cinnamic acid piperidinylamide]",increase water licks of the rats during the punished session,459.75 ± 59.23,increase the open-arms entries of the mice,prolong their open-arms time
"CC(C)CNC(=O)CCc1cc2c(c(C(F)(F)F)c1)OCO2 [II-11, 3-(5′-trifluoromethyl-3′,4′-methylenedioxyphenyl)-propionic acid isobutylamide]",increase water licks of the rats during the punished session,426.25 ± 37.29,increase the open-arms entries of the mice,prolong their open-arms time
"CC(C)CNC(=O)c1cc2c(c(C(F)(F)F)c1)OCO2 [II-12, 5-trifluoromethyl-3′,4′-methylenedioxy benzoic acid isobutylamide]",increase water licks of the rats during the punished session,402.67 ± 50.35,increase the open-arms entries of the mice,prolong their open-arms time
"CN1CCN(C(=O)/C=C/CCc2cc3c(c(C(F)(F)F)c2)OCO3)CC1.Cl [II-13, (E)-N-(4-methylpiperazinyl)-5-(5′-trifluoromethyl-3′,4′-methylenedioxyphenyl)-1-pentene amide hydrochloride]",increase water licks of the rats during the punished session,393.44 ± 48.99,increase the open-arms entries of the mice,prolong their open-arms time
"CC(C)CNC(=O)/C=C/C=C/CCc1cc2c(c(C(F)(F)F)c1)OCO2 [II-14, (2E, 4E)-N-isobutyl-7-(5′-trifluoromethyl-3′,4′-methylenedioxyphenyl)-2,4-heptadiene amide]",increase water licks of the rats during the punished session,368.00 ± 47.38,increase the open-arms entries of the mice,prolong their open-arms time
"CN1CCN(C(=O)/C=C/C=C/CCc2cc3c(c(C(F)(F)F)c2)OCO3)CC1.Cl [II-15, (2E,4E)-N-(4-methylpiperazinyl)-7-(5′-trifluoromethyl-3′,4′-methylenedioxyphenyl)-2,4-heptadiene amide hydrochloride]",increase water licks of the rats during the punished session,412.25 ± 42.90,increase the open-arms entries of the mice,prolong their open-arms time
"COc1cc(/C=C/C(=O)NCC(C)C)cc(C(F)(F)F)c1OC [III-2, 3′,4′-dimethoxy-5′-trifluoromethyl-cinnamic acid isobutylamide]",increase water licks of the rats during the punished session,368.00 ± 39.59,increase the open-arms entries of the mice,prolong their open-arms time
"COc1c(O)cc(/C=C/C(=O)NCC(C)C)cc1C(F)(F)F [III-4, 3′-hydroxyl-4′-methoxy-5′-trifluoromethyl-cinnamic acid isobutylamide]",increase water licks of the rats during the punished session,394.22 ± 50.29,increase the open-arms entries of the mice,prolong their open-arms time
"CC(C)CNC(=O)/C=C/c1cc(O)c(O)c(C(F)(F)F)c1 [III-7, 3′,4′-dihydroxyl-5′-trifluoromethyl-cinnamic acid isobutylamide]",increase water licks of the rats during the punished session,378.33 ± 54.97,increase the open-arms entries of the mice,prolong their open-arms time
"O=C(/C=C/c1cc(O)c(O)c(C(F)(F)F)c1)N1CCCCC1 [III-9, 3′,4′-dihydroxyl-5′-trifluoromethyl-cinnamyl piperidine]",increase water licks of the rats during the punished session,363.56 ± 39.70,increase the open-arms entries of the mice,prolong their open-arms time
"CC(C)CNC(=O)CCc1cc(O)c(O)c(C(F)(F)F)c1 [III-10, 3-(3′,4′-dihydroxyl-5′-trifluoromethylphenyl)-propionic acid isobutylamide]",increase water licks of the rats during the punished session,369.00 ± 44.83,increase the open-arms entries of the mice,prolong their open-arms time
